How the values were obtained:
Format in all cases: in vivo
[1] = tested on: Rhipicephalus (Boophilus) microplus larvae (strain Parkhurst, resistant against synthetic pyrethroids); assay: Rhipicephalus (Boophilus) microplus in-vitro contact test, larval cattle tick; details: after 48 hours, read-out: activity (efficacy: larvae dead or moribund); for pest or weed control at 1 µg/cm2, 100 g/ha: application rate 1 μg/cm^2 (=100 g/ha); for pest or weed control at 5 µg/cm2, 500 g/ha: application rate 5 μg/cm^2 (=500 g/ha)
Description: Rhipicephalus (Boophilus) microplus—In-Vitro Contact Tests Larval Cattle Tick (Strain Parkhurst, Resistant Against Synthetic Pyrethroids)
(§1) 9 mg compound is solved in 1 ml acetone and diluted with acetone to the desired concentration. 250 μL of the test solution is filled in 25 mL glass test tubes and homogeneously distributed on the inner walls by rotation and tilting on a shaking device (2 h at 30 rpm). With a compound concentration of 900 ppm, an inner surface of 44.7 cm^2 and a homogeneous distribution, a dose of 5 μg/cm^2 is achieved.
After the solvent has evaporated, each test tube is filled with 20-50 cattle tick larvae (Rhipicephalus microplus), closed with a perforated lid and incubated in a horizontal position at 85% relative humidity and 27° C. in an incubator. After 48 hours efficacy is determined. The larvae are patted on the ground of the tubes and negative geotactic behavior is recorded.
An efficacy of 100% means all larvae are dead or moribund; 0% means no larvae are dead or moribund.

[2] = tested on: adult brown dog ticks (Rhipicephalus sanguineus); assay: Rhipicephalus sanguineus in-vitro contact test, adult brown dog ticks; details: application rate 5 μg/cm^2 (=500 g/ha), after 48 hours, read-out: activity (efficacy: ticks dead or moribund)
Description: Rhipicephalus sanguineus—In-Vitro Contact Tests with Adult Brown Dog Ticks
as §1, with “mL” for “ml”
(§2) After the solvent has evaporated, each test tube is filled with 5-10 adult brown dog ticks (Rhipicephalus sanguineus), closed with a perforated lid and incubated in a lying position at room temperature and relative humidity. After 48 hours efficacy is determined. The ticks are patted on the ground of the tubes and are incubated on a heating plate at 45-50° C. for at most 5 minutes. Immotile or uncoordinated moving ticks, which are not able to escape the heat by climbing upwards, are marked as dead or moribund.
An efficacy of 100% means all ticks are dead or moribund; 0% means no ticks are dead or moribund.

[3] = tested on: larvae of the banded cucumber beetle (Diabrotica balteata); assay: Diabrotica balteata spray test; details: 168 h, application rate 100 g/ha (=32 μg/well), after 7 days, wheat seeds, read-out: activity (efficacy: seedlings grown)
Description: Diabrotica balteata—Spray Test
(§3) To produce a suitable preparation of active compound, 1 part by weight of active compound is mixed with the stated amount of solvent, and the concentrate is diluted with water, containing an emulsifier concentration of 1000 ppm, to the desired concentration. Further test concentrations are prepared by dilution with emulsifier containing water.
Soaked wheat seeds (Triticum aestivum) are placed in a multiple well plate filled with agar and some water and are incubated for 1 day to germinate (5 seeds per well). The germinated wheat seeds are sprayed with a test solution containing the desired concentration of the active ingredient. Afterwards each unit is infected with 10-20 larvae of the banded cucumber beetle (Diabrotica balteata).
After 7 days efficacy in % is determined. 100% means all the seedlings have grown up like in the untreated, uninfected control; 0% means none of the seedlings have grown.

[4] = tested on: fall armyworm larvae (Spodoptera frugiperda); assay: Spodoptera frugiperda spray test; details: 168 h, application rate 100 g/ha, after 7 days, maize leaf sections
Description: Spodoptera frugiperda—Spray Test
as §3, with “solvents” for “solvent,”, “and” for “and the concentrate”
Maize (Zea mays) leaf sections are sprayed with a preparation of the active ingredient of the desired concentration. Once dry, the leaf sections are infested with fall armyworm larvae (Spodoptera frugiperda).
After 7 days mortality in % is determined. 100% means all caterpillars have been killed and 0% means none of the caterpillars have been killed.

[5] = tested on: adult engorged female ticks (Rhipicephalus microplus); assay: Rhipicephalus (Boophilus) microplus injection test; details: 168 h, application rate 4 μg/tick, egg deposition after 7 days, read-out: activity (efficacy: infertile eggs)
Description: Rhipicephalus (Boophilus) microplus—Injection Test
Solvent: dimethyl sulfoxide
To produce a suitable preparation of active compound, 10 mg of active compound are dissolved in 0.5 mL solvent, and the concentrate is diluted with solvent to the desired concentration.
Five adult engorged female ticks (Rhipicephalus microplus) are injected with 1 μL compound solution into the abdomen. The ticks are transferred into replica plates and incubated in a climate chamber.
After 7 days egg deposition of fertile eggs is monitored. Eggs where fertility is not visible are stored in a climate chamber till hatching after about 42 days. An efficacy of 100% means all eggs are infertile; 0% means all eggs are fertile.

[6] = tested on: green peach aphid (Myzus persicae); assay: Myzus persicae oral test; details: 120 h, read-out: activity (mortality)
Description: Solvent: 100 parts by weight acetone
To produce a suitable preparation of active compound, 1 part by weight of active compound is mixed with the stated amount of solvent, and the concentrate is diluted with water to the desired concentration.
50 μL compound solution is filled in microtiter plates and 150 μL IPL41 insect medium (33%+15% sugar) is added to obtain a total volume of 200 μL per well. Afterwards the plates are sealed with parafilm through which a mixed population of the green peach aphid (Myzus persicae) can suck on the compound preparation.
(§4) After 5 days mortality in % is determined. 100% means all aphids have been killed and 0% means none of the aphids have been killed.

[7] = tested on: adult cat fleas (Ctenocephalides felis); assay: Ctenocephalides felis in-vitro contact test, adult cat flea; details: application rate 5 μg/cm^2 (=500 g/ha), after 48 hours, read-out: activity (efficacy: fleas dead or moribund)
Description: Ctenocephalides felis—In-Vitro Contact Tests Adult Cat Flea
as §1, with “mL” for “ml”
as §2, with “cat fleas (Ctenocephalides felis),” for “brown dog ticks (Rhipicephalus sanguineus),”, “fleas” for “ticks”, “fleas,” for “ticks,”
An efficacy of 100% means all fleas are dead or moribund; 0% means no fleas are dead or moribund.

[8] = tested on: green peach aphid (Myzus persicae); assay: Myzus persicae spray test; details: foliar, 120 h, after 5 days, Chinese cabbage leaf disks; for mortality at 100 g/ha: application rate 100 g/ha, read-out: activity (mortality)
Description: Myzus persicae—Spray Test
as §3, with “solvents” for “solvent,”, “and” for “and the concentrate”
Chinese cabbage (Brassica pekinensis) leaf disks infected with all instars of the green peach aphid (Myzus persicae), are sprayed with a preparation of the active ingredient of the desired concentration.
as §4

| Structure (SMILES) | pest or weed control at 1 µg/cm2, 100 g/ha [1] | pest or weed control at 5 µg/cm2, 500 g/ha [1] | pest or weed control at 5 µg/cm2, 500 g/ha [2] | pest or weed control at 32 µg/disc, 100 g/ha [3] | mortality at 100 g/ha [4] | pest or weed control at 0.004 mg [5] | mortality at 4 ppm [6] | pest or weed control at 5 µg/cm2 [7] | mortality at 500 g/ha ([8]; application rate 500 g/ha) | mortality at 100 g/ha [8] |
| --- | --- | --- | --- | --- | --- | --- | --- | --- | --- | --- |
| CC(NC(=O)c1cc(C(F)(F)F)cc(C(F)(F)F)c1)c1nc(Br)nn1-c1ccc(C(=O)N2CCOCC2)cn1 (racemic) [Example I-86, N-[1-[5-bromo-2-[5-(morpholine-4-carbonyl)-2-pyridyl]-1,2,4-triazol-3-yl]ethyl]-3,5-bis(trifluoromethyl)benzamide] | 100% | 100% | 80% | 100% | 83% |  |  |  |  |  |
| Cc1nc([C@H](C)NC(=O)c2cc(C(F)(F)F)cc(C(F)(F)F)c2)n(-c2ncc(C(=O)N3CCCC3)s2)n1 [Example I-16, N-[(1S)-1-{3-methyl-1-[5-(pyrrolidin-1-ylcarbonyl)-1,3-thiazol-2-yl]-1H-1,2,4-triazol-5-yl}ethyl]-3,5-bis(trifluoromethyl)benzamide] | 100% | 100% |  | 100% | 100% | 80% | 100% |  |  |  |
| Cc1nc([C@H](C)NC(=O)c2cc(Cl)cc(C(F)(F)F)c2)n(-c2ccc(C(=O)N3CC[C@H](O)C3)cn2)n1 [Example I-25] |  |  |  |  |  | 100% | 100% |  |  |  |
| Cc1nc([C@H](C)NC(=O)c2cc(Cl)cc(C(F)(F)F)c2)n(-c2ccc(C(=O)N3CC[C@@H](O)C3)cn2)n1 [Example I-26] |  |  |  |  |  | 100% | 100% |  |  |  |
| C[C@H](NC(=O)c1cc(Cl)cc(C(F)(F)F)c1)c1ncnn1-c1ccc(N2CCOCC2)cn1 [Example I-43] | 100% | 100% | 100% | 100% |  |  |  |  |  |  |
| C[C@@H]1CN(C(=O)c2ccc(-n3ncnc3[C@H](C)NC(=O)c3cc(Cl)cc(S(C)(=O)=O)c3)nc2)C[C@H](C)O1 [Example I-53] |  |  |  |  | 100% |  | 100% | 100% |  |  |
| C[C@H](NC(=O)c1cc(Cl)cc(C(F)(F)F)c1)c1ncnn1-c1ccc(N2CCSCC2=O)cn1 [Example I-55] |  |  |  |  |  |  | 100% | 80% |  |  |
| C[C@H](NC(=O)c1cc(OC(F)(F)F)cc(C2CC2)c1)c1ncnn1-c1ccc(N2CCOCC2=O)cn1 [Example I-58] |  |  |  |  |  |  |  |  | 90% |  |
| C[C@H](NC(=O)c1cc(OC(F)(F)F)cc(C2CC2)c1)c1ncnn1-c1ccc(C(=O)N2CCOC[C@@H]2C)cn1 [Example I-66] | 100% | 100% |  | 100% | 83% |  |  | 100% |  |  |
| C[C@H](NC(=O)c1cc(C(F)(F)F)cc(C(F)(F)F)c1)c1ncnn1-c1ccc(C(=O)N2CCOC[C@H]2C)cn1 [Example I-71] | 100% | 100% | 80% | 100% | 100% |  | 100% | 100% |  |  |
| Cc1nc([C@H](C)NC(=O)c2cc(C(F)(F)F)cc(C(F)(F)F)c2)n(-c2ccc(C(=O)N3CCOCC3c3ncno3)cn2)n1 (stereo partly shown) [Example I-99] | 100% | 100% | 80% |  |  |  | 100% | 100% |  | 90% |
| C[C@H](NC(=O)c1cc(C(F)(F)F)cc(C(F)(F)F)c1)c1ncnn1-c1ccc(C(=O)N2CCOCC2c2ccnn2C)cn1 (stereo partly shown) [Example I-100] | 90% | 90% |  | 100% | 83% |  |  | 80% |  |  |
| C[C@H](NC(=O)c1cc(OC(F)(F)F)cc(C2CC2)c1)c1ncnn1-c1ccc(N2CCOCC2)cn1 [Example I-104] | 100% | 100% |  | 100% |  |  |  | 90% |  | 90% |
| C[C@H](NC(=O)c1cc(C(F)(F)F)cc(C(F)(F)F)c1)c1ncnn1-c1ccc(C(=O)N(C)C2CCOCC2)cn1 [Example I-110] | 100% | 100% |  |  | 100% |  | 100% | 100% |  | 90% |
| Cc1nc([C@H](C)NC(=O)c2cc(Br)cc(OC(F)(F)F)c2)n(-c2ncc(C(=O)N3CCOCC3)s2)n1 [Example I-136] | 100% | 100% | 100% |  | 100% |  |  |  |  |  |
| Cc1nc([C@H](C)NC(=O)c2cc(C(F)(F)F)cc(C(F)(F)F)c2)n(-c2ccc(C(=O)N3C[C@@H](C)O[C@@H](C)C3)nn2)n1 [Example I-139] | 100% | 100% | 100% | 100% |  |  |  |  |  |  |
| C[C@@H]1CN(C(=O)c2cnc(-n3ncnc3[C@H](C)NC(=O)c3cc(OC(F)(F)F)cc(C4CC4)c3)nc2)C[C@H](C)O1 [Example I-148] |  |  |  | 100% | 100% |  |  |  |  | 90% |
